Reference: patent US7485742B2, “Non-glycosidic and non-peptidic inhibitors of selectin, and the use thereof” (Johannes Gutenberg-Universität Mainz, priority 2004, dated 2009)

Legend:
MM6-cells = assay: XTT-viability test; assay type: cell-based; conditions: after 1.5 hours, FIG. 3
Description: The XTT-assay (Cell Proliferation Kit II (XTT), Roche molekulare Biochemikalien, Mannheim, Germany) was used for the quantification of the anti-proliferative or cytotoxic effects of the substances as synthesized. The assay is based on the conversion of the yellow tetrazolium-salt XTT into an orange formazan-dye by metabolically active cells. The XTT-formazan-dye is soluble in aqueous solutions, and can be directly determined in a quantitative fashion with an ELISA-reader. The incubation time varies depending from the respective experimental setting (e.g. the kind of cell and the cellular concentrations used). Following the addition of the final XTT-reagent, the absorption was determined at 490 nm, at different points in time (e.g. 30 minutes, 4, 6, 8, 12, and 18 hours). All data were analyzed with Microsoft Excel. The IC50 values were calculated with the program GRAFIT, Erithacus Software Ltd., Great Britain.
Using the commercial available XTT-test kit, the cytotoxic behavior of substances with different structural elements against MM6-cells was examined after 1.5 hours. Structural elements that are responsible for the cytotoxicity were identified. The amide-function in combination with free carboxylic acid-functions was identified as particularly cytotoxic.

[1] = test system: adhesion of PMN leukocytes to BAEC monolayer stimulated with TNF-α (selectin-mediated); assay: Static adhesion assay (leukocyte adhesion to endothelial monolayer); assay type: cell-based, bovine; conditions: for potency in the static adhesion assay, bimosiamose compared with T3: bimosiamose at 600 μM versus T3 at 100 μM
Description: The reduction of adhesion of adhering leukocytes to the monolayer stimulated with TNF-α was set to 0%, the one in the untreated control-wells was set to 100%.
Following seeding in 24 well-plates, the examination of the adhesion was performed using (bovine aorta endothelial cells) BAEC monolayers of the cell passage 1-3 seven days. Before performing the assay, the completeness and the uniformity of the BAEC-monolayer was microscopically ensured. The culture medium (500 ml of medium M199, to which 6 ml of penicillin/streptomycin solution 1%, 6 ml L-glutamine (200 mM) and 100 ml (20%) of fetal calf serum, Sigma, Munich, were added) was removed, and the monolayer was washed twofold with DPBS (1000 μl/well, 37° C.). Subsequent to washing, the cells were treated with the cell culture medium containing 20 ng/ml of recombinant tumor necrosis-factor-alpha (TNFα) (in the presence of the respective test substance, dissolved in dimethylsulfoxide (DMSO) or only with DMSO as vehicle) […] at 37° C. and 5% CO2 for 4 hours. After another twofold washing with DPBS (1000 μl/well, 37° C.) 900 μl of the culture medium and 100 μl of a PMN-suspension (10^6 cells per ml) were added per well, and incubated for 30 minutes at 37° C. and 5% CO2. Non-adherent cells were removed by twofold washing with DPBS (1000 μl/well, 37° C.). […]
The BAEC-sections were analyzed with an inverse Leica DM IRS-microscope (Leica, Bensheim, Germany) at 100-fold magnification. […] For the manual counting of PMNs, several randomly selected sections of 0.25 mm^2 in size from the centre of the respective well of the well-plate were counted. […] In order to do so, each PMN in the area as chosen was counted by a PC-mouse click, and the counted cells were labeled. […]
The analysis of the pictures was performed using the publicly available ImageJ-software (available at http://rsb.info.nih.gov/ij), installed on a standard-PC (Maxdata, Mergel, Germany). All pictures as obtained in a test run were grouped into an series, and then analyzed in an automated method using a specifically programmed macro. […]

selectins = conditions: cited from earlier work

Compound	cytotoxic behavior (XTT) (MM6-cells)	potency in the static adhesion assay, bimosiamose compared with T3 [1]	effect on the reduction of the adhesion (potency) ([1]; static assay, FIG. 1, leukocytes on TNF-α-stimulated BAEC monolayer, 10^-4-10^-7 mol/l tested)	affinity to the selectins compared to sLeX (selectins)
CS(=O)(=O)c1ccc(C2=C(c3ccccc3)C(=O)OC2)cc1 [Rofecoxib]	has cytotoxic effects			
CCCCCCCCCCOc1cc(OCCCCCCCCCC)cc(OCCCCCC(=O)N(c2ccc(C(=O)O)cc2)c2ccc(C(=O)O)cc2)c1 [T3, 6-(3,5-Didecyloxyphenoxy)-hexanoic acid-N,N-bis(4-carboxyphenyl)amide]		about the same potency		
CCCCCCCCCCOc1cc(OCCCCCCCCCC)cc(OCCCCCCN(c2ccc(C(=O)O)cc2)c2ccc(C(=O)O)cc2)c1 [T21, 4-(N-(6-(3,5-bis(decyloxy)phenoxy)hexyl)-N-(4-carboxyl-phenyl)amino)benzoic acid]	completely non-toxic		highly potent	
O=C(O)Cc1cccc(-c2cc(CCCCCCc3ccc(O[C@H]4O[C@H](CO)[C@@H](O)[C@H](O)[C@@H]4O)c(-c4cccc(CC(=O)O)c4)c3)ccc2O[C@H]2O[C@H](CO)[C@@H](O)[C@H](O)[C@@H]2O)c1 [bimosiamose, 1,6-bis[3-(3-carboxymethylphenyl)-4-(2-alpha-D-mannopyranosyloxy)phenyl]hexane]		about the same potency		essentially higher affinity
